# Measured values from ChEMBL document CHEMBL6177981, “Bardoxolone Derivatives as Novel Pseudo-Natural Necroptosis Inhibitors by Destabilizing HSP90 Client Proteins” (J Med Chem, 2025).
# Active and inactive are the calls of the source. The rule behind the calls is not given here.
# Legend:
# [1] = target: T1, Receptor-interacting serine/threonine-protein kinase 1 (Homo sapiens) (UniProt Q13546); experiment: Inhibition of RIPK1 activation in TSZ-induced human HT-29 cells at 10 uM preincubated with compound followed by Z-VAD-FMK, SM164 and TNFalpha stimulation and measured after 6 hrs by Western blot analysis; type: cell-based
# T1 sequence (whole entry): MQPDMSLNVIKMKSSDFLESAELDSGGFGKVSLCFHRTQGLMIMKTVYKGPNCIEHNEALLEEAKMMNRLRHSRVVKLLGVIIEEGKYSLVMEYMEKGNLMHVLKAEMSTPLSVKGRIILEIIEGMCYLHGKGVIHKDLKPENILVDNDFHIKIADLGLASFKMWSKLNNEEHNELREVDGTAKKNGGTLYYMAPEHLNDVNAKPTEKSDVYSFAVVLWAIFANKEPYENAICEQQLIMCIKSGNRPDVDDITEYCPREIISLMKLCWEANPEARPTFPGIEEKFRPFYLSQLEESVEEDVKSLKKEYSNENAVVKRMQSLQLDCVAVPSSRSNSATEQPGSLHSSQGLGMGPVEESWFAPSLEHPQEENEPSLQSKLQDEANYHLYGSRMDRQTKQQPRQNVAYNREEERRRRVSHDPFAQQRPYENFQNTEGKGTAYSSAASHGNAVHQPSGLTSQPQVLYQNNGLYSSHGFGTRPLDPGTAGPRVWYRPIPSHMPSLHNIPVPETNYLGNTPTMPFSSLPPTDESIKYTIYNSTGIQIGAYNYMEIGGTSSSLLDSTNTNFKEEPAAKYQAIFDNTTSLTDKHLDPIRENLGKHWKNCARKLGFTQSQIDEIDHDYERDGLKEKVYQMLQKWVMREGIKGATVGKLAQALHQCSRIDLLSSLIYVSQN
# HT-29 [2] = experiment: Downregulation of RIPK1 protein level in human HT-29 cells incubated for 9 hrs by Western blot analysis; type: functional, cell-based; conditions: dose 0.75-6 µM
# HT-29 [3] = experiment: Upregulation of HSP70 expression in human HT-29 cells at 1.5 uM incubated for 9 hrs by Western blot analysis; type: functional, cell-based
# HT-29 [4] = experiment: Downregulation of RIPK1 protein level in human HT-29 cell supernatant at 6 uM measured after 9 hrs by Western blot analysis; type: functional, cell-based
# [5] = target: T1, Receptor-interacting serine/threonine-protein kinase 1 (Homo sapiens); experiment: Inhibition of RIPK1 phosphorylation in TSZ-induced human HT-29 cells at 10 uM preincubated with compound followed by Z-VAD-FMK, SM164 and TNFalpha stimulation and measured within 6 hrs by Western blot analysis relative to control; type: cell-based
# HT-29 [6] = experiment: Anti-necroptotic activity in TCZ-induced human HT-29 cells assessed as increase in cell viability at 1.25 uM preincubated with compound followed by Z-VAD-FMK, cycloheximide and TNFalpha addition and measured after 16 hrs by CellTiter-Lumi luminescent cell viability assay relative to control; type: functional
# HT-29 [7] = experiment: Downregulation of MLKL protein level in human HT-29 cells at 6 uM preincubated with MLN4924 for 2 hrs followed by compound addition and measured after 9 hrs by Western blot analysis; type: functional, cell-based
# [8] = Acute toxicity in male C57BL/6J mouse assessed as effect on AST level at 2 g/Kg, IG measured after 72 hrs; conditions: in vivo, po, 2000 mg/kg
# HT-29 [9] = experiment: Downregulation of MLKL protein level in human HT-29 cells at 3 to 6 uM incubated for 9 hrs by Western blot analysis; type: functional, cell-based; conditions: dose 3-6 µM
# Mus musculus [10] = experiment: Anti-necroptotic activity in TNFalpha/Z-VAD-FMK induced SIRS male C57BL/6J mouse model assessed as reduction in IL6 in kidney at 5 to 10 mg/kg, po pre-administered with compound via gavage for 2 hrs followed by […] of Z-VAD-FMK stimulation for 15 mins with subsequent TNF-alpha stimulation for 1 hrs and re-current […] of Z-VAD-FMK stimulation and measured after 8 hrs post SIRS induction by ELISA; type: functional, organism-based; conditions: dose 5-10 mg/kg, time 10.0 hrs
# Mus musculus [11] = experiment: Anti-necroptotic activity in TNFalpha/Z-VAD-FMK induced SIRS male C57BL/6J mouse model assessed as reduction in IL-1beta in lung at 5 to 10 mg/kg, po pre-administered with compound via gavage for 2 hrs followed by […] of Z-VAD-FMK stimulation for 15 mins with subsequent TNF-alpha stimulation for 1 hrs and re-current […] of Z-VAD-FMK stimulation and measured after 8 hrs post SIRS induction by ELISA; type: functional, organism-based; conditions: dose 5-10 mg/kg, time 10.0 hrs
# HeLa [12] = experiment: Inhibition of MLKL protein expression in RIPK3-deficient human HeLa cells at 6 uM preincubated with NH4Cl for 2 hrs followed by compound addition and measured after 9 hrs by Western blot analysis; type: functional, cell-based
# HT-29 [13] = experiment: Downregulation of RIPK1 protein level in human HT-29 cells at 6 uM preincubated with Z-VAD-FMK for 2 hrs followed by compound addition and measured after 9 hrs by Western blot analysis; type: functional, cell-based
# [14] = Cmax in Sprague-Dawley rat at 10 mg/kg, IG measured after 24 hrs by LC-MS/MS analysis; type: ADME, organism-based; conditions: in vivo, po
# [15] = Acute toxicity in male C57BL/6J mouse assessed as hemorrhage in liver at 2 g/Kg, IG measured after 72 hrs by H and E staining based analysis; type: tissue-based; conditions: in vivo, po, 2000 mg/kg
# [16] = Acute toxicity in male C57BL/6J mouse assessed as structural changes in brain at 2 g/Kg, IG measured after 72 hrs by H and E staining based analysis; type: tissue-based; conditions: in vivo, po, 2000 mg/kg
# [17] = Acute toxicity in male C57BL/6J mouse assessed as hemorrhage in kidney at 2 g/Kg, IG measured after 72 hrs by H and E staining based analysis; type: tissue-based; conditions: in vivo, po, 2000 mg/kg
# [18] = Tmax in Sprague-Dawley rat at 2 mg/kg, iv measured after 24 hrs by LC-MS/MS analysis; type: ADME, organism-based; conditions: in vivo
# HeLa [19] = experiment: Inhibition of MLKL protein expression in RIPK3-deficient human HeLa cells at 6 uM preincubated with MG132 for 2 hrs followed by compound addition and measured after 9 hrs by Western blot analysis; type: functional, cell-based
# HT-29 [20] = experiment: Upregulation of HSP70 protein level in TSZ-induced human HT-29 cells at 0.625 to 10 uM preincubated with compound followed by Z-VAD-FMK, SM164 and TNFalpha stimulation and measured after 6 hrs by Western blot analysis; type: functional, cell-based; conditions: dose 0.625-10 µM
# HT-29 [21] = experiment: Anti-apoptotic activity in TS-induced human HT-29 cells assessed as increase in cell viability at 1.25 to 20 uM preincubated with compound followed by TNF-alpha and SM164 addition and measured after 36 hrs by CellTiter-Lumi luminescent cell viability assay; type: functional, cell-based; conditions: dose 1.25-20 µM
# [22] = Acute toxicity in male C57BL/6J mouse assessed as inflammatory cell infiltration in liver at 2 g/Kg, IG measured after 72 hrs by H and E staining based analysis; type: tissue-based; conditions: in vivo, po, 2000 mg/kg
# [23] = Cmax in Sprague-Dawley rat at 2 mg/kg, iv measured after 24 hrs by LC-MS/MS analysis; type: ADME, organism-based; conditions: in vivo
# HT-29 [24] = experiment: Downregulation of RIPK3 protein level in human HT-29 cells at 6 uM preincubated with MG132 for 2 hrs followed by compound addition and measured after 9 hrs by Western blot analysis; type: functional, cell-based
# HT-29 [25] = experiment: Downregulation of EGFR expression in human HT-29 cells at 0.75 to 6 uM incubated for 9 hrs by Western blot analysis; type: functional, cell-based; conditions: dose 0.75-6 µM
# HT-29 [26] = experiment: Downregulation of RIPK3 protein level in human HT-29 cells incubated for 9 hrs by Western blot analysis; type: functional, cell-based; conditions: dose 0.75-6 µM
structure (smiles),measurement,setting,value
Cn1ccc(-c2ccc(NC(=O)[C@]34CCC(C)(C)C[C@H]3[C@H]3C(=O)C=C5[C@@]6(C)C=C(C#N)C(=O)C(C)(C)[C@@H]6CC[C@@]5(C)[C@]3(C)CC4)cc2)n1,inhibition,[1],Active
same,Activity,HT-29 [2],Dose-dependent-effect
same,Activity,HT-29 [3],Active
same,Activity,HT-29 [4],Active
same,inhibition,[5],100%
same,Activity,HT-29 [6],100%
same,Activity,HT-29 [7],Active
same,Activity,[8],Non-toxic
same,Activity,HT-29 [9],Active; Significant Effect Observed
same,Activity,Mus musculus [10],Active
same,Activity,Mus musculus [11],Active
same,inhibition,HeLa [12],Active
same,Activity,HT-29 [13],Active
same,Cmax,[14],65.1 ng/mL
same,Activity,[15],Non-toxic
same,Activity,[16],Non-toxic
same,Activity,[17],Non-toxic
same,Tmax,[18],4.98 min
same,inhibition,HeLa [19],Active
same,Activity,HT-29 [20],inactive
same,Activity,HT-29 [21],inactive
same,Activity,[22],Non-toxic
same,Cmax,[23],1040 ng/mL
same,Activity,HT-29 [24],Active
same,Activity,HT-29 [25],Active
same,Activity,HT-29 [26],Dose-dependent-effect
